According to patent US10973758B2 (O.D. Ocular Discovery Ltd., priority 2013, dated 2021):
Like-named read-outs stand apart in the source and are kept apart here.

How the values were obtained:
[1] = Dissolution in pH-adjusted aqueous solution; assay type: physicochemical; conditions: pH adjusted to ˜6.6 (6.5-6.7)
Text: The natural pH of tear fluid is 7.4; however, discomfort for the user will not be felt as long as the pH of the administered medication stays in the range of 6.6-7.8 (Sampath Kumar et al., “Recent Challenges and Advances in Ophthalmic Drug Delivery System,” in The Pharma Innovation, Vol. 1, No. 4 (2012)). Others administer eye drops at a pH of 5.5 and find this pH to be optimal.

[2] = system: cAMP levels; conditions: in-vitro, in comparison to a control; cited from earlier work
[3] = system: nitric oxide levels; conditions: cited from earlier work
[4] = system: ocular inflammatory disease; conditions: cited from earlier work
[5] = system: thrombus formation; conditions: arterial circulation of the brain, rabbit model; cited from earlier work
[6] = cited from earlier work; for peak plasma level: oral
[7] = cited from earlier work

- dissolution in aqueous solution [1]: fully dissolves
Structure (SMILES): OCCN(CCO)c1nc(N2CCCCC2)c2nc(N(CCO)CCO)nc(N3CCCCC3)c2n1 [dipyridamole, 2,6-bis (diethanolamino)-4,8-dipiperidinopyrimido [5,4-d] pyrimidine]
- effect on cAMP levels [2]: negligible effect
- effect on nitric oxide levels [3]: increases nitric oxide levels
- effect in ocular inflammatory disease ([4]; systemically administered): significant beneficial effect
- effect in ocular inflammatory disease ([4]; topically administered (in liquid formulation)): ineffective
- effect on thrombus formation [5]: reduce thrombus formation
- half-life, third phase of tri-exponential decline ([6]; IV or oral 20-50 mg, followed up to 60 hours): 10 to 12 h
- peak plasma level ([6]; after a 25 mg dose): about 0.5 g/mL
- peak plasma level ([6]; after a 75 mg dose): 1.6 µg/mL
- distribution half-life ([6]; humans, after oral administration): about 3 hours
- time to peak plasma levels ([6]; humans, following oral administration): 1 to 3 h
- distribution half-life ([6]; humans, intravenous (IV) administration): about 25 minutes
- solubility in methanol ([7]; methanol): very soluble
- solubility in water ([7]; water): practically insoluble
